Source: patent publication US8859614B2 (University of Nebraska—Lincoln, priority 2008, dated 2014)
“And” between values parts separate entries of the source, which are not always exact repeats. Equal values may be shown once. “Also recorded” adds a separate entry of the source.

Legend:
MDA-MB-231 cells [1] = assay: MDA-MB-231 orthotopic xenografts in SCID/NOD mice; type: in vivo, human
Experimental: (§1) Details of the preclinical trial using picropodophyllin synthesized as described (Buchardt O, et al. J. Pharm. Sci. (1986), 75:1076-1080) and Erlotinib (purchased from Hwasun Biotechnology Co) are described in Results. The drugs were dissolved in DMSO and cremophor (9:1) and injected intraperitoneally. To calculate tumor volumes, the formula for a prolate spheroid (π/6×a×b2 or ˜a×b2/2, where a and b are the major and minor axis, respectively) was used. The lengths of axes were determined microscopically from sections of tumor nodules using a computer assisted morphometry system (SpotAdvanced VS. 4.0.1, Nikon Eclipse E400). For xenograft experiments, 5×10^6 MDA-MB-231 cells were injected bilaterally into the fat pads of mammary glands 3 and 4 of female SCID/NOD mice. […] For in vitro experiments, MDA-MB-231 cells were grown in DMEM supplemented with 10% fetal bovine serum. […] Cell viability (duplicates) was measured on days 2, 4 and 6 by using the Thiazolyl Blue Tetrazolium Bromide (MTT) colorimetric assay (Mosmann T, J. Immunol. Methods (1983), 65:55-63).
Nevertheless, in conjunction with the mouse data, these observations provide strong justification for further evaluations of the drug against human breast cancer.

[2] = target: T1, human Insulin-like Growth Factor I Receptor Kinase (IGF1 RK) domain (Homo sapiens, UniProt P08069); settings: background statement; cited from earlier work
T1 construct: human Insulin-like Growth Factor I Receptor Kinase (IGF1 RK) domain

[3] = system: Kras*-induced mammary carcinomas; assay: Drug treatment of Kras*-induced mouse mammary carcinomas; type: in vivo
[4] = system: murine breast cancer cell line derived from Kras* mice; assay: MTT cell growth assay on a Kras* breast cancer cell line; type: cell-based, mouse; settings: for MTT colorimetric reading reflecting cell density, Day 2, Average / MTT colorimetric reading reflecting cell density, Day 2, individual duplicate wells / Inhibition of growth of the Kras* breast cancer cell line (in words): 500 nM, 48 h; for MTT colorimetric reading reflecting cell density, Day 2, Average: average of duplicates, Day 0 0.3675, no drug 0.792; for MTT colorimetric reading reflecting cell density, Day 2, individual duplicate wells: wells 1 and 2, Day 0 0.373/0.362, no drug 0.959/0.625
Experimental: A murine breast cancer cell line derived from Kras* mice was used to assay the effect of IGF1RK inhibitors. Approximately 30,000 cells/well were plated in a 24-well plate which corresponds to 20% confluence. The next day (Day 0 for the experiment) two of wells were treated with MTT (Thiazol Blue Tetrazolium), a substrate used in a colorimetric metabolic assay that reflects cell density. […] Forty-eight hours later the duplicate wells were assayed.

[5] = system: Kras*-induced mammary carcinomas; assay: Drug treatment of Kras*-induced mouse mammary carcinomas; type: in vivo; settings: for Macroscopic and histopathological effect on tumors and tumor components (in words): 3 weeks of treatment; for Tumor volume per gland / Tumor volume per gland (Table 10): Mean ± S.E.M.; for Tumor volume per gland / Tumor volume per gland, % of control (vehicle): i.p. once daily for 3 weeks, PPP 30 mg/kg, Erlotinib 50 mg/kg; for Tumor volume per gland: vehicle 217.8 ± 65.6; for Tumor volume per gland, % of control (vehicle): vehicle = 100; for Tumor volume per gland (Table 10): pooled vehicle controls 243.3 ± 68.9 (9 mice); for Potency relative to PPP against Kras*-induced mammary carcinomas: from % tumor volume versus control; for Tumor volume per gland, % of pooled vehicle control (Table 10): pooled vehicle control = 100
Experimental: as §1
First, the tumors developing in each gland tended to be multifocal and uneven, and progressively coalesced into larger masses precluding reliable evaluation.
After 21 days of treatment, the mice are sacrificed, weighed, and the initial tumors measured individually. In addition, tumors which were not palpable at the time of initial palpation, but had grown during the therapy period, are also isolated.
The efficacy of compounds 18 “(NB3)” and 21 “(NB6)” to ameliorate Kras*-induced mouse mammary carcinomas was tested. While testing NB3 and NB6 (4 mice each), 2 controls were added (2 tumor-bearing mice treated with vehicle).

MDA-MB-231 cells [6] = assay: MDA-MB-231 in vitro cell viability (MTT assay); type: cell-based, human; settings: PPP 500 nM; MTT on days 2, 4 and 6
Description: FIG. 8A-C. In vitro inhibition of Igf1r action. Representative experiments of pharmacological inhibition of IGF1R in MDA-MB-231 cells by picropodophyllin (A) or by IGF1R knockdown using a dominant-negative construct (B) or siRNA (C). The absorbance (mean values±S.E.M.) reflects cell numbers estimated from duplicate samples using the MTT assay (see Experimental Procedures). […] (B) Plasmid 486Stop (encoding dominant-negative IGF1R) or a control plasmid (pcDNA3) were introduced in MDA-MB-231 cells by nucleofection following the manufacturer's protocol (1.5 μg of plasmid DNA per […]; Amaxa Biosystems). The same method was used to introduce into these cells a 19-bp RNA duplex (R4) targeting IGR1R mRNA or a scrambled control duplex (Scr4; see SI Materials and Methods, for details). […]
Details of the preclinical trial using picropodophyllin synthesized as described (Buchardt O, et al. J. Pharm. Sci. (1986), 75:1076-1080) and Erlotinib (purchased from Hwasun Biotechnology Co) are described in Results. […] The lengths of axes were determined microscopically from sections of tumor nodules using a computer assisted morphometry system (SpotAdvanced VS. 4.0.1, Nikon Eclipse E400). […] Cell viability (duplicates) was measured on days 2, 4 and 6 by using the Thiazolyl Blue Tetrazolium Bromide (MTT) colorimetric assay (Mosmann T, J. Immunol. Methods (1983), 65:55-63).

insulin receptor = insulin receptor (Homo sapiens, UniProt P06213); settings: Girnita 2004; Vasilcanu 2008; cited from earlier work
insulin receptor, sequence (P06213 28-1382, species assumed): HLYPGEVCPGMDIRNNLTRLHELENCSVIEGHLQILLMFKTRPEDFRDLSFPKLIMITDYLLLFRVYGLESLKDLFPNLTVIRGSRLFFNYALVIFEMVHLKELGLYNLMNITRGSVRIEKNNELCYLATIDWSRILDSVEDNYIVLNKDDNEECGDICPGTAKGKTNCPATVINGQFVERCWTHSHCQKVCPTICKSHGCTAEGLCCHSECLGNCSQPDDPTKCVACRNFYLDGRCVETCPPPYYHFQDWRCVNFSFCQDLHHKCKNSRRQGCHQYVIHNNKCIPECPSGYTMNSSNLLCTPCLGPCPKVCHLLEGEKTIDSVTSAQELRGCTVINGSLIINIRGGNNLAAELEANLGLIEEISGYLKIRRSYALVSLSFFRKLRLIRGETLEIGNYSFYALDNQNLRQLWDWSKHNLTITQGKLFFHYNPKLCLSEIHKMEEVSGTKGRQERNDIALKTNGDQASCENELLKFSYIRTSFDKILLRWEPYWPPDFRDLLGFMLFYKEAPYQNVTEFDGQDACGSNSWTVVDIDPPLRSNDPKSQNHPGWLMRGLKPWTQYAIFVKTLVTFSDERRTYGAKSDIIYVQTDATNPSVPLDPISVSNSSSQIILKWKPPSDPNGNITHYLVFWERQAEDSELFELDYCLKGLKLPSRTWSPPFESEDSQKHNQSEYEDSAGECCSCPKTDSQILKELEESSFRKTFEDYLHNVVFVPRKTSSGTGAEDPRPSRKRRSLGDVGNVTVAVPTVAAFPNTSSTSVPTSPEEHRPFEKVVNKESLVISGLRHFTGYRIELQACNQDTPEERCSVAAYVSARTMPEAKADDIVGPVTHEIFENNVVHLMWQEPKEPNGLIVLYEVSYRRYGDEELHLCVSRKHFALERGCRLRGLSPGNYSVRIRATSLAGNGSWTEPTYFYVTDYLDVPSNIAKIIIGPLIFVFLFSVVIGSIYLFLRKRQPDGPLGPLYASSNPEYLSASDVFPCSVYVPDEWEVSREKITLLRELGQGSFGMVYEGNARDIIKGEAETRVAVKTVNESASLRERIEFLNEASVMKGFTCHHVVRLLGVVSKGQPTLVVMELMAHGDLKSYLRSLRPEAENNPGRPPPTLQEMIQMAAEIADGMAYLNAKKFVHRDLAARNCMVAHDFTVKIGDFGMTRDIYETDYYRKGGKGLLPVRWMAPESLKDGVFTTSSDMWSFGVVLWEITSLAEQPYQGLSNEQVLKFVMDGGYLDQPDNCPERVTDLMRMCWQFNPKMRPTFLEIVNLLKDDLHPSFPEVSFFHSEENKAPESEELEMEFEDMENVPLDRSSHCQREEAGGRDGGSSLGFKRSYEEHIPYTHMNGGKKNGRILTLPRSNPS

T1 sequence (P08069 999-1274 limits assumed): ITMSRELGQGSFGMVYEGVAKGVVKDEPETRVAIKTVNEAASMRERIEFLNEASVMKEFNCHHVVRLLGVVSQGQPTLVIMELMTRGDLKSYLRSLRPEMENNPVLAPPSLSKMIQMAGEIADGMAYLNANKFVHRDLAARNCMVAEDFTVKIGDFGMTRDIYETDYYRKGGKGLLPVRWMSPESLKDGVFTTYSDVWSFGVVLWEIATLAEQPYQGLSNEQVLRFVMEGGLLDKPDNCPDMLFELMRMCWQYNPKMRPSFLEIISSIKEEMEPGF

Compound: COc1cc([C@@H]2c3cc4c(cc3[C@H](O)C3COC(=O)[C@H]32)OCO4)cc(OC)c1OC (single isomer, unassigned; (-)) [PPP, (−)-picropodophyllin]
- Tumor volume per gland, xenografts (MDA-MB-231 cells [1]; Mean ± S.E.M., SCID/NOD mice, PPP i.p. for 3 weeks, vehicle 304 ± 40.8): 215 ± 18.6 mm^3
- Xenograft tumor growth versus vehicle-treated controls (in words) (MDA-MB-231 cells [1]; NOD/SCID mice, orthotopically injected MDA-MB-231 cells): attenuated
- Tumor volume per gland, xenografts, % of vehicle (MDA-MB-231 cells [1]; SCID/NOD mice, PPP i.p. for 3 weeks, vehicle = 100): 70.7%
- Effect on IGF1 RK kinase activity (in words) [2]: inhibits its kinase activity
- Increase in apoptosis in the pale component (activated caspase 3 immunohistochemistry) versus vehicle ([3]; 3 days of administration): ~9 fold
- Proliferation (proliferation indices) in tumors ([3]; 3 days of treatment): at control levels
- MTT colorimetric reading reflecting cell density, Day 2, Average [4]: 0.4775
- MTT colorimetric reading reflecting cell density, Day 2, individual duplicate wells [4]: 0.478 and 0.477
- Macroscopic and histopathological effect on tumors and tumor components (in words) [5]: marked reduction or even absence of the pale and squamous cell components; also recorded: dramatically smaller; also recorded: diminishes the size of pale cell tumors
- Tumor volume per gland [5]: 16.0 ± 9.1 mm^3
- Total tumor volume per mouse ([5]; after 21 days of daily treatment, vehicle 653±219, p=0.05): 54±28 mm^3
- Tumor volume per gland, % of control (vehicle) [5]: ~7% and 7.3%
- % tumor volume in comparison with the control, normalized to the new control data ([5]; previous PPP value re-normalized to pooled vehicle control): 6.5%
- In vitro viability of MDA-MB-231 cells (in words) (MDA-MB-231 cells [6]): drastically reduced
- Effect on the homologous insulin receptor (in words) (insulin receptor): not affected

Compound: COc1cc(OC)cc([C@@H]2c3cc4c(cc3[C@H](O)C3COC(=O)[C@H]32)OCO4)c1 (stereo partly drawn) [Compound 21, 4′-Demethoxy-(−)-picropodophyllin]
- MTT colorimetric reading reflecting cell density, Day 2, Average [4]: 0.4845
- MTT colorimetric reading reflecting cell density, Day 2, individual duplicate wells [4]: 0.505 and 0.464
- Tumor volume per gland (Table 10) [5]: 2.1 ± 1.0 mm^3
- Potency relative to PPP against Kras*-induced mammary carcinomas [5]: 7 times
- Tumor volume per gland, % of pooled vehicle control (Table 10) [5]: 0.9%

Compound: C#Cc1cccc(Nc2ncnc3cc(OCCOC)c(OCCOC)cc23)c1 [Erlotinib]
- Macroscopic and histopathological effect on tumors and tumor components (in words) [5]: reduced predominantly the pale cell component
- Tumor volume per gland [5]: 66.9 ± 29.3 mm^3
- Tumor volume per gland, % of control (vehicle) [5]: 30.7%

Compound: COc1ccc([C@@H]2c3cc4c(cc3[C@H](O)C3COC(=O)[C@H]32)OCO4)cc1 (stereo partly drawn) [Compound 19, 3′,5′-Didemethoxy-(−)-picropodophyllin]
- Inhibition of growth of the Kras* breast cancer cell line (in words) [4]: essentially no activity

Compound: COc1cccc([C@@H]2c3cc4c(cc3[C@H](O)C3COC(=O)[C@H]32)OCO4)c1 (stereo partly drawn) [Compound 18, 4′,5′-Didemethoxy-(−)-picropodophyllin]
- Inhibition of growth of the Kras* breast cancer cell line (in words) [4]: as effective as PPP
- MTT colorimetric reading reflecting cell density, Day 2, Average [4]: 0.5245
- MTT colorimetric reading reflecting cell density, Day 2, individual duplicate wells [4]: 0.483 and 0.566
- IC50 ([4]; Mus musculus, read-out: IC50 for growth inhibition of Kras* breast cancer cell line): ~400 nM
- Tumor volume per gland (Table 10) [5]: 20.9 ± 10.8 mm^3
- Potency relative to PPP against Kras*-induced mammary carcinomas [5]: same potency as PPP
- Tumor volume per gland, % of pooled vehicle control (Table 10) [5]: 6.5%
